Among the test systems are HOP-62 NSCLC; OVCAR-8 ovarian; CCRF-CEM leukemia; MDA-MB-231 breast; SNB-19 CNS; T-47D breast; BT-549 breast; COLO 205 colon; SF-295 CNS; 786-0 renal; M14 melanoma; MOLT-4 leukemia; RXF 393 renal; EKVX NSCLC; UO-31 renal; SF-539 CNS; HCC-2998 colon.
Test in all cases: NCI anticancer screen, dose series, 48 h

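Cultured in 96-well plates, cells were exposed to test compound for 48 hours across five concentrations. TGI: concentration producing complete growth inhibition.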 Where a SMILES comes first, the peptide text is derived from it. [ ]: non-standard residue; d: D form. The star is where a group is joined. Phe(4-NO2) = N[CH](Cc1ccc([N+](=O)[O-])cc1)C(=O)O; Cbz = O=C(OCc1ccccc1)* Where only a bound is given, the exact number is not on record here.

Consider `CCCCC(C(=O)N/N=C/c1ccc([N+](=O)[O-])o1)C(=O)N/N=C/c1ccc([N+](=O)[O-])o1`, for which the TGI was 28.8 µM in the assay with HOP-62 NSCLC; 5.89 µM in the assay on OVCAR-8 ovarian; 5.58 µM with CCRF-CEM leukemia; 12 µM with MDA-MB-231 breast; 13.7 µM in the assay with SNB-19 CNS; 7.69 µM with T-47D breast. Besides, the TGI came to 17.2 µM in the assay on BT-549 breast; 14.7 µM with COLO 205 colon; 31.4 µM in the assay with SF-295 CNS; 5.5 µM with 786-0 renal; 13.6 µM in the assay on M14 melanoma; 7.72 µM with MOLT-4 leukemia. The TGI was determined as 5.07 µM with RXF 393 renal, 26.6 µM with EKVX NSCLC, 4.6 µM with UO-31 renal and 35.5 µM in the assay on SF-539 CNS.

For the compound `CC(=O)OCC1OC(n2c(C#N)cc(=O)[nH]c2=O)CC1OC(C)=O` (stereo not given), the TGI with HOP-62 NSCLC, in the assay on OVCAR-8 ovarian, in the assay on CCRF-CEM leukemia, in the assay with MDA-MB-231 breast, in the assay with SNB-19 CNS and in the assay with T-47D breast was above 100 µM in each case. The TGI with BT-549 breast, in the assay on COLO 205 colon, with SF-295 CNS, in the assay on 786-0 renal, with M14 melanoma and in the assay with MOLT-4 leukemia was above 100 µM throughout. For the same compound, the TGI in the assay on RXF 393 renal, in the assay on EKVX NSCLC, with UO-31 renal and in the assay with SF-539 CNS was above 100 µM throughout.

As to `Cc1cc(N)ccc1N=Nc1ccc(S(=O)(=O)CCOS(=O)(=O)O)cc1`, the TGI is 22.6 µM with HOP-62 NSCLC; 5.89 µM in the assay on OVCAR-8 ovarian; above 100 µM in the assay with CCRF-CEM leukemia; 6.74 µM in the assay with HCC-2998 colon; 19.3 µM with SNB-19 CNS; above 59.1 µM in the assay on T-47D breast. Moreover, the TGI is 14.6 µM in the assay on BT-549 breast; 6.08 µM in the assay with COLO 205 colon; 9.21 µM in the assay on SF-295 CNS; 6.55 µM in the assay with 786-0 renal; 18.4 µM in the assay with M14 melanoma; above 32.5 µM in the assay with MOLT-4 leukemia. For the same compound, the TGI with RXF 393 renal is 23.7 µM; in the assay with EKVX NSCLC, above 53 µM; with UO-31 renal, 8.63 µM; in the assay with SF-539 CNS it was 6.9 µM.

With `Cc1nnc2sc(Cl)nn12`, the TGI in the assay on HOP-62 NSCLC is 96 µM; with OVCAR-8 ovarian, above 100 µM; in the assay with CCRF-CEM leukemia, 26.4 µM; in the assay with MDA-MB-231 breast, 54.4 µM; in the assay with HCC-2998 colon it was 31.6 µM; with SNB-19 CNS, above 100 µM. For the same compound, the TGI turned out to be 73.4 µM in the assay on T-47D breast; 46.7 µM in the assay on BT-549 breast; 29.9 µM in the assay with COLO 205 colon; 36.2 µM with SF-295 CNS; 86.8 µM with 786-0 renal; 28.1 µM in the assay with M14 melanoma. For the same compound, the TGI amounted to 29.3 µM with MOLT-4 leukemia, 43.9 µM with EKVX NSCLC, 74 µM with UO-31 renal and 47.1 µM with SF-539 CNS.

For the compound `NC1OC(COC(=O)c2ccccc2)C(O)C(OC(=O)c2ccccc2)C1OC(=O)c1ccccc1` (stereo not given), the TGI was 50.2 µM in the assay with HOP-62 NSCLC; 37.8 µM in the assay on OVCAR-8 ovarian; 45.9 µM in the assay with MDA-MB-231 breast; above 100 µM in the assay on SNB-19 CNS; above 100 µM with T-47D breast; 40.6 µM in the assay on BT-549 breast. Besides, the TGI with COLO 205 colon was 50.3 µM; with SF-295 CNS, 33.6 µM; in the assay on 786-0 renal, 30.3 µM; in the assay with M14 melanoma, 58.1 µM; in the assay on MOLT-4 leukemia, 54 µM; in the assay with RXF 393 renal, 31.3 µM. For the same compound, the values for the TGI in the assay with EKVX NSCLC and with UO-31 renal were 60.2 µM and 94.2 µM, respectively.

For the compound `Cc1ccccc1N=CN(C)C`, the TGI in the assay with HOP-62 NSCLC, with OVCAR-8 ovarian, with CCRF-CEM leukemia, in the assay on MDA-MB-231 breast, in the assay on SNB-19 CNS and with T-47D breast was above 100 µM each time. Also, the TGI in the assay with BT-549 breast, with COLO 205 colon, in the assay with SF-295 CNS, with 786-0 renal, in the assay with M14 melanoma and in the assay with MOLT-4 leukemia was above 100 µM each time. In addition, the TGI in the assay on RXF 393 renal, in the assay on EKVX NSCLC, with UO-31 renal and in the assay with SF-539 CNS was above 100 µM each time.

For `CC1(C)C(C#N)=[N+]([O-])C(C)(C)N1O`, the TGI in the assay with HOP-62 NSCLC, in the assay with OVCAR-8 ovarian, with CCRF-CEM leukemia, in the assay with MDA-MB-231 breast, in the assay on HCC-2998 colon and with SNB-19 CNS was above 100 µM each time. For the same compound, the TGI in the assay with T-47D breast, with COLO 205 colon, in the assay with SF-295 CNS, in the assay with 786-0 renal, with M14 melanoma and in the assay with MOLT-4 leukemia was above 100 µM in each case. The TGI with RXF 393 renal, with EKVX NSCLC, in the assay with UO-31 renal and with SF-539 CNS was above 100 µM in each case.

With `CCC(=O)C1(N2CCOCC2)CCN(CCCC(=O)c2ccc(F)cc2)CC1`, the TGI in the assay with HOP-62 NSCLC, with OVCAR-8 ovarian, in the assay on CCRF-CEM leukemia, in the assay with MDA-MB-231 breast, with HCC-2998 colon and in the assay on SNB-19 CNS was above 100 µM in each case. The TGI with T-47D breast, with COLO 205 colon, in the assay on SF-295 CNS, with 786-0 renal, in the assay on M14 melanoma and in the assay on MOLT-4 leukemia was above 100 µM throughout. The TGI in the assay with RXF 393 renal, in the assay with EKVX NSCLC, in the assay on UO-31 renal and in the assay on SF-539 CNS was above 100 µM in each case.

In the case of `CCOC(=O)CCC(NC(=O)OCc1ccccc1)C(=O)NC(CCC(=O)OCC)C(=O)NC(Cc1ccc([N+](=O)[O-])cc1)C(=O)NC(CCC(=O)OCC)C(=O)NC(CCC(=O)OCC)C(=O)OCC` (stereo not given) (Cbz-E(OEt)E(OEt)[Phe(4-NO2)]E(OEt)E(OEt)-OEt; configuration not given here), the TGI with HOP-62 NSCLC, in the assay on OVCAR-8 ovarian, in the assay with CCRF-CEM leukemia, in the assay on MDA-MB-231 breast, in the assay with SNB-19 CNS and in the assay on T-47D breast was above 100 µM in each case. Further, the TGI with BT-549 breast, in the assay on COLO 205 colon, in the assay with SF-295 CNS, with 786-0 renal, in the assay on MOLT-4 leukemia and in the assay on RXF 393 renal was above 100 µM each time. Moreover, the TGI in the assay on EKVX NSCLC and with UO-31 renal was above 100 µM each time.

The record behind these values is PubChem BioAssay (NCI).
